Values quoted from earlier work, collected in patent US9968555B2, “Liposomal formulations that form drug nanocrystals after freeze-thaw” (ARADIGM CORPORATION, priority 2014, dated 2018).
≈ marks a conversion by molar mass, not a printed value.

Test system: M. avium

minimum inhibitory concentration (MIC): 5 µg/mL (≈ 15.1 µM)
SMILES: O=C(O)c1cn(C2CC2)c2cc(N3CCNCC3)c(F)cc2c1=O [ciprofloxacin]
